Data as given in publication PMC9535653 (ACS Omega, 2022).

How the values were obtained:
Truncated C-domain ACE = experiment: fluorimetric ACE activity assay, truncated C-domain; type: biochemical; conditions: at micromolar concentrations under identical assay conditions
N-domain (ACE) = conditions: read-out: Ki, N-domain, ref [20],[21]; cited from earlier work
C-domain of ACE = conditions: ref [20],[21], cited from earlier work

Chain of Truncated C-domain ACE (P12821 643-1222 limits assumed): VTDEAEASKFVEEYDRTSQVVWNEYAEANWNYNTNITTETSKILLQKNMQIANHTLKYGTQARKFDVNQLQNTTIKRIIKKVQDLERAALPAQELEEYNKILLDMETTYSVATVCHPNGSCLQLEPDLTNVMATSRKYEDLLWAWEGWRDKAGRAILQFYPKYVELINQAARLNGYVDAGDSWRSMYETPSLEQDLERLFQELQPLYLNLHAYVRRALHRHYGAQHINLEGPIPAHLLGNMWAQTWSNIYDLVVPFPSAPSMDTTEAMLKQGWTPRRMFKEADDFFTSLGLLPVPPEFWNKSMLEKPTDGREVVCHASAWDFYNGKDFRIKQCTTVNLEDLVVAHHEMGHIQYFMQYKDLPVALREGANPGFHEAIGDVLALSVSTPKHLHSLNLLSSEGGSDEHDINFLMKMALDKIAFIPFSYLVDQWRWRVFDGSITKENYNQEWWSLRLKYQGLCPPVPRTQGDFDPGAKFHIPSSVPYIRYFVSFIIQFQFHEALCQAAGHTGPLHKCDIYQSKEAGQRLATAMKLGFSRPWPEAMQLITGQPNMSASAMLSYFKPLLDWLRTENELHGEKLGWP

(2-(((R)-1-(((Benzyloxy)carbonyl)amino)-2-phenylethyl)(hydroxy)phosphoryl)cyclopentane-1-carbonyl)-L-tryptophan [RXPA380]
Inhibition of C-domain by parent (in words) (Truncated C-domain ACE): completely inhibits the C-domain at micromolar concentrations
Ki (N-domain (ACE)): 10 µM
potency and selectivity for C-domain of ACE (in words) (C-domain of ACE; C-domain versus N-domain): the most potent and selective C domain of ACE
Ki (C-domain of ACE; read-out: Ki, C-domain, ACE C-domain): 0.003 µM
